According to patent US20110244506A1, “EGFR DEPENDENT MODULATION OF CHEMOKINE EXPRESSION AND INFLUENCE ON THERAPY AND DIAGNOSIS OF TUMORS AND SIDE EFFECTS THEREOF” (Merck Patent GmbH, priority 2005, published 2011):

What was measured:
IL-8, keratinocytes = assay: Secreted IL-8 levels in keratinocytes (Luminex); assay type: cell-based; conditions: with or without TGFa or TNFa, 24 h, supernatant
Procedure: (§1) Evaluations were carried out with the Luminex bead technology. In these experiments keratinocytes were treated with anti-EGFR inihibitors followed by treatment with or without TGF alpha or TNF alpha.
(§2) After 24 h, cellular supernatants were collected and levels of IL-8 were quantified using the Luminex technology.

IL-8, A431 = assay: Secreted IL-8 levels in A431 (Luminex); assay type: cell-based; conditions: for secreted IL-8 levels: A431, with or without TGFa or TNFa, 24 h, supernatant
Procedure: (§3) Tumor cells were treated with anti-EGFR agents and this was followed by treatment with or without TGF alpha or TNF alpha. Secreted chemokines were evaluated in conditioned medium of tumor cells obtained after 24 h. Evaluation was carried out with the Luminex bead technology.
as §2
(§4) Cells were treated with 100 ng/ml Cmab or Mmab and stimulated with 100 ng/ml TGFa; number of experiments=1

COX-2 = assay: Western blotting of COX-2 protein in keratinocytes; assay type: cell-based; conditions: with or without TGFa or TNFa, 24 h
Procedure: (§5) In these experiments keratinocytes were treated with different concentrations of anti-EGFR inhibitors followed by treatment with or without TGF alpha or TNF alpha for, approximately, 24 h. Effects of anti-EGFR inhibitors were evaluated using Western blotting.
(§6) After 24 h, cells were lysed and analysed by Western blotting.

IP-10, A431 = assay: Secreted IP-10 levels in A431 (Luminex); assay type: cell-based; conditions: A431, with or without TGFa or TNFa, 24 h, supernatant
Procedure: as §3
(§7) After 24 h, cellular supernatants were collected and levels of IP-10 were quantified using the Luminex technology.

STAT3 = assay: Western blotting of STAT3 phosphorylation in keratinocytes; assay type: cell-based; conditions: with or without TGFa or TNFa, 24 h
Procedure: as §5, §6

IP-10, keratinocytes = assay: Secreted IP-10 levels in keratinocytes (Luminex); assay type: cell-based; conditions: with or without TGFa or TNFa, 24 h, supernatant
Procedure: as §1, §7

RANTES, keratinocytes = assay: Secreted RANTES levels in keratinocytes (Luminex); assay type: cell-based; conditions: with or without TGFa or TNFa, 24 h, supernatant
Procedure: as §1
(§8) After 24 h, cellular supernatants were collected and levels of RANTES were quantified using the Luminex technology.

ERK1/2 (Thr 202/204) = assay: Western blotting of ERK1/2 phosphorylation in keratinocytes; conditions: with or without TGFa or TNFa, 24 h
RANTES, A431 = assay: Secreted RANTES levels in A431 (Luminex); assay type: cell-based; conditions: A431, with or without TGFa or TNFa, 24 h, supernatant
Procedure: as §3, §8

IL-8, U87MG = assay: Secreted IL-8 levels in U87MG (Luminex); assay type: cell-based; conditions: 100 ng/ml antibody, stimulated with 100 ng/ml TGFa, number of experiments=1
Procedure: as §2, §4

IL-8, PC-3 = assay: Secreted IL-8 levels in PC-3 (Luminex); assay type: cell-based; conditions: 100 ng/ml antibody, stimulated with 100 ng/ml TGFa, number of experiments=1
Procedure: as §2, §4

[1] = tested on: IL-8, tumor cell lines (DiFi, HT29, A431, MCF-7, PC-3 and U87 MG); assay: Secreted IL-8 levels in different tumor cell lines (Luminex); assay type: cell-based; conditions: stimulated with TGFa, 24 h
Procedure: as §2

IL-8, DiFi = assay: Secreted IL-8 levels in DiFi (Luminex); assay type: cell-based; conditions: 100 ng/ml antibody, stimulated with 100 ng/ml TGFa, number of experiments=1
Procedure: as §2, §4

IL-8, HT29 = assay: Secreted IL-8 levels in HT29 (Luminex); assay type: cell-based; conditions: 100 ng/ml antibody, stimulated with 100 ng/ml TGFa, number of experiments=1
Procedure: as §2, §4

[2] = tested on: EGFR-dependent signaling cascades, tumor cell lines such as A431; assay: EGFR-dependent signaling cascades in tumor cell lines; assay type: cell-based; conditions: various tumor cell lines such as A431
IL-8, MCF-7 = assay: Secreted IL-8 levels in MCF-7 (Luminex); assay type: cell-based; conditions: 100 ng/ml antibody, stimulated with 100 ng/ml TGFa, number of experiments=1
Procedure: as §2, §4

EGFR (Tyr 1068) = EGFR (Tyr 1068) (Homo sapiens, UniProt P00533); assay: Western blotting of EGFR phosphorylation in keratinocytes; conditions: with or without TGFa or TNFa, 24 h

Row | Compound | secreted IL-8 levels (IL-8, keratinocytes) | secreted IL-8 levels (IL-8, A431) | expression of COX-2 (COX-2) | secreted IP-10 levels (IP-10, A431) | phosphorylation of STAT3 (STAT3) | secreted IP-10 levels (IP-10, keratinocytes) | secreted RANTES levels (RANTES, keratinocytes) | phosphorylation of ERK1/2 (Thr 202/204) (ERK1/2 (Thr 202/204)) | secreted RANTES levels (RANTES, A431) | IL-8 levels (IL-8, A431; A431, 100 ng/ml antibody, stimulated with 100 ng/ml TGFa, number of experiments=1) [% control] | IL-8 levels (IL-8, U87MG) [% control] | IL-8 levels (IL-8, PC-3) [% control] | secreted IL-8 levels [1] | IL-8 levels (IL-8, DiFi) [% control] | IL-8 levels (IL-8, HT29) [% control] | EGFR-dependent signaling cascades [2] | IL-8 levels (IL-8, MCF-7) [% control] | phosphorylation of EGFR (Tyr 1068) (EGFR (Tyr 1068))
1 | COc1cc2ncnc(Nc3ccc(F)c(Cl)c3)c2cc1OCCCN1CCOCC1 [Iressa, gefitinib, reference compound] | down-regulated IL-8 in a dose-dependent manner | down-regulated IL-8 in a dose-dependent manner | induced expression of COX-2 | up-regulated IP-10 in a dose-dependent manner | prevented phosphorylation of STAT3 | up-regulated IP-10 in a dose-dependent manner | up-regulated RANTES in a dose-dependent manner | prevented phosphorylation | up-regulated RANTES in a dose-dependent manner |  |  |  |  |  |  |  |  | 
2 | Matuzumab: humanized monoclonal antibody 425 directed to the EGF receptor | down-regulated IL-8 in a dose-dependent manner | down-regulated IL-8 in a dose-dependent manner | induced expression of COX-2 | up-regulated IP-10 in a dose-dependent manner | prevented phosphorylation of STAT3 | up-regulated IP-10 in a dose-dependent manner | up-regulated RANTES in a dose-dependent manner | prevented phosphorylation | up-regulated RANTES in a dose-dependent manner | 15 | 58 | 76 | down-regulated IL-8 in all tumor cell lines investigated in a dose-dependent manner | 28 | 30 | interferes with EGFR-dependent signaling cascades | 49 | prevented phosphorylation
